Source: publication doi:10.1101/2021.03.15.435551, “Discovery of SARS-CoV-2 papain-like protease inhibitors through a combination of high-throughput screening and FlipGFP-based reporter assay” (bioRxiv, 2021)

Experiments:
[1] = biological target: T1, SARS-CoV-2 PL^pro (PL^pro; PL^pro-His) (Severe acute respiratory syndrome coronavirus 2, UniProt P0DTD1); assay: FRET peptide cleavage assay; assay type: biochemical; conditions: Dabcyl-FTLRGG/APTKV-Edans substrate, 200 nM PLpro
T1 construct: gene rep

SARS-CoV-2 M^pro = biological target: T2, SARS-CoV-2 M^pro (Severe acute respiratory syndrome coronavirus 2, UniProt P0DTD1); assay: Mpro FRET peptide assay; assay type: biochemical; conditions: pH 6.5; Dabcyl-KTSAVLQ/SGFRKME(Edans) substrate
T2 construct: gene rep

[2] = biological target: T3, SARS-CoV-2 PL^pro (pcDNA3.1 SARS2 PL^pro, FlipGFP assay) (Severe acute respiratory syndrome coronavirus 2, UniProt P0DTD1); assay: FlipGFP-PLpro reporter assay; assay type: cell-based; conditions: GFP/mCherry ratio, 48 h
T3 construct: gene rep

| Compound | IC50 [1] | inhibition at up to 200 μM (SARS-CoV-2 M^pro) | EC50 [2] |
| --- | --- | --- | --- |
| C[C@H](c1ccc(Cl)cc1)N(C)Cc1cc(O)ccc1Cl [Jun9-13-4] | > 20000 nM | – | – |
| CC(c1ccccc1Cl)N(C)Cc1cc(O)ccc1Cl (centres unmarked) [Jun9-13-7] | 7290 ± 1030 nM | > 200 µM | – |
| CC(c1cc(F)ccc1F)N(C)Cc1cc(O)ccc1Cl (centres unmarked) [Jun9-29-5] | > 20000 nM | – | – |
| Cc1ccc(N)cc1CN(C)[C@H](C)c1cccc2ccccc12 [Jun9-53-2] | 890 nM | – | – |
| C[C@H](c1cccc2ccccc12)N(C)Cc1cccc2[nH]ccc12 [Jun9-75-4] | 620 nM | – | – |
| Jun9-75-5 | 560 nM | – | > 60000 nM |
